Results reported in publication PMC11431137, “[^68Ga]Ga-DOTAGA-Glu(FAPi)2 Shows Enhanced Tumor Uptake and Theranostic Potential in Preclinical PET Imaging” (Diagnostics, 2024).
Values joined by “and” are separate entries in the source; they are usually repeats but may differ in a detail not shown here. Equal values may be shown once. Each block holds one molecule with its values, some of them ahead of it.

Columns and labels:
FAP = test system: FAP; parameters: method as in PMID 36980775; settings: cited from earlier work
FAP over PREP and DPP = test system: FAP over PREP and DPP; parameters: method as in PMID 38999044; settings: compared with DOTAGA.(SA.FAPi)2; cited from earlier work
[1] = Stability of radiochemical purity (RCP) post-formulation by radio-HPLC; format: physicochemical; settings: formulated in phosphate buffer (0.1 M, pH 7) with ethanol
Experimental: Gallium-68 chloride was obtained by eluting the ^68Ge/^68Ga generator (Galliapharm, Eckert & Ziegler, Berlin, Germany) with 0.1 M HCl. Ammonium acetate buffer (0.1 M, pH 5.5), and a DOTAGA-Glu(FAPi)2 stock solution (2 mg/mL) for labeling was prepared using water for ultratrace analysis (Merck, Darmstadt, Germany). [^68Ga]GaCl3 solution in 0.1 M HCl (500 µL, ca. 200 MBq ^68Ga) was mixed with ammonium acetate buffer (80 µL) and DOTAGA-Glu-(FAPi)2 stock solution (4 µL). The resulting mixture was placed on an agitating mixer and shaken at 600 rpm for 5 min at 60 °C. Afterward, the reaction mixture was diluted with 5 mL water and passed through a Strata-X 33 µm polymeric reversed-phase cartridge (Phenomenex, Torrance, CA, USA). The cartridge was rinsed with more water (0.3 mL) and eluted with absolute ethanol (0.5 mL). Ethanol was evaporated under nitrogen flow and gentle heating to 40 °C. The residue was resolubilized in an aliquot of fresh ethanol (20 µL) and further diluted with phosphate buffer (0.1 M, pH 7) to a total volume of 2 mL.
Radiochemical conversion (RCC) for the ^68Ga-labeling process and radiochemical purity (RCP) of the formulated [^68Ga]Ga-DOTAGA-Glu(FAPi)2 were assessed by radio-HPLC.

[2] = test system: endogenously FAP-expressing xenografted mouse model, U87MG; assay: In vivo PET/CT imaging, organ distribution in U87MG xenografted mice
Excerpt: Six-week-old female NMRI nude mice were purchased (Janvier, Le Genest-Saint-Isle, France) and housed in groups of 4–8 mice in individually ventilated cages under regular lighting conditions. They were fed a standard pathogen-free pellet diet and provided water ad libitum. All animal experiments were approved by The Animal Experiments Inspectorate in Denmark (2021-15-0201-01041). The animals were acclimatized for two weeks before study initiation.
To establish a tumor model, the mice were subcutaneously inoculated on the right flank with a human xenograft glioblastoma U87MG (HTB-14, ATCC, Manassas, VA, USA). These cells were cultivated in Dulbecco’s modified Eagle’s medium (DMEM) supplemented with fetal bovine serum (FBS) and penicillin–streptomycin (Pen/Strep). Tumor growth was monitored two times weekly using calipers.
After adequate tumor establishment, the animals were injected intravenously in the tail vein with 4.49 ± 0.04 MBq [^68Ga]Ga-DOTAGA-Glu(FAPi)2 in a 100 μL phosphate buffer (0.1 M, pH 7) with 1% ethanol (v/v). PET/CT imaging (Inveon, Siemens Healthineers, Knoxville, TN, USA) was performed immediately after injection, and PET data were acquired for 3000 s. The imaging protocol included a dynamic framing setup, with five consecutive frames of 600 s each, resulting in average time intervals of 0–10, 10–20, 20–30, 30–40, and 40–50 min post-injection. During imaging, body temperature was maintained using a heated platform.
PET images were reconstructed using the 3D-OSEM/SP-MAP algorithm, and attenuation correction was performed using the co-registered CT images. The activity concentration was decay-corrected to the time of injection and quantified using Inveon Research Workplace (IRW). Regions of interest were manually drawn on CT images to delineate organs and derive volume and activity. Subsequently, the percentage of injected dose per gram (% ID/g) was calculated for tumor, blood, liver, kidney, and muscle tissues for each frame.
All graphical representations of the data were generated using Prism version 10.1.0 (1994–2023, GraphPad Software, LLC, Boston, MA, USA). The results were expressed as the mean ± standard error of the mean (SEM).

[3] = logD7.4, shake flask method with n-octanol and phosphate-buffered saline (pH 7.4); format: physicochemical; settings: n-octanol / PBS pH 7.4, shake flask
Excerpt: The kinetic profile of [^68Ga]Ga-DOTAGA-Glu-(FAPi)2 is explained considering its low lipophilicity, estimated by measuring the logD7.4 value using the shake flask method with n-octanol and phosphate-buffered saline (pH 7.4). The logD7.4 of −2.5 ± 0.05 indicates good hydrophilicity, leading to renal excretion over biliary excretion. […] Moreover, the compound is more hydrophilic than the first-generation dimer [^68Ga]Ga-DOTAGA.(SA.FAPi)2 (−2.0 ± 0.1) ([25]), resulting in lower background uptake and higher tumor-to-background image contrast.

[4] = 5 min post-injection, Mean±SEM, n = 4 mice
[5] = 5 min post-injection, individual mice M1-M4
[6] = 15 min post-injection, Mean±SEM, n = 4 mice
[7] = 15 min post-injection, individual mice M1-M4
[8] = 25 min post-injection, Mean±SEM, n = 4 mice
[9] = 25 min post-injection, individual mice M1-M4
[10] = 35 min post-injection, Mean±SEM, n = 4 mice
[11] = 35 min post-injection, individual mice M1-M4
[12] = 45 min post-injection, Mean±SEM, n = 4 mice, listed as [68Ga]Ga-DOTAGA-Glu-(FAPi)2
[13] = 45 min post-injection, Mean±SEM, n = 4 mice, listed as [^68Ga]Ga-DOTAGA-Glu-(FAPi)2
[14] = 45 min post-injection, individual mice M1-M4

SMILES: N#C[C@@H]1CC(F)(F)CN1C(=O)CNC(=O)c1ccnc2ccc(OCCCCNC(=O)CC[C@H](NC(=O)CCC(C(=O)O)N3CCN(CC(=O)O)CCN(CC(=O)O)CCN(CC(=O)O)CC3)C(=O)NCCCCOc3ccc4nccc(C(=O)NCC(=O)N5CC(F)(F)C[C@H]5C#N)c4c3)cc12 (stereo partly drawn) [DOTAGA-Glu(FAPi)2, 2,2′,2″-(10-(4-(((S)-1,5-bis((4-((4-((2-((S)-2-Cyano-4,4-difluoropyrrolidin-1-yl)-2-oxoethyl)carbamoyl)quinolin-6-yl)oxy)butyl)amino)-1,5-dioxopentan-2-yl)amino)-1-carboxy-4-oxobutyl)-1,4,7,10-tetraazacyclododecane-1,4,7-triyl)triacetic acid]
IC50 (FAP): 0.26 ± 0.04 nM | selectivity for FAP over PREP and DPP (FAP over PREP and DPP): higher selectivity than DOTAGA.(SA.FAPi)2

RCP stable post-formulation [1]: at least 1 h | Organ distribution, bladder [2, 4]: 3.96±0.42 %ID/g | Organ distribution, kidney [2, 4]: 6.68±0.48 %ID/g | Organ distribution, liver [2, 4]: 5.83±0.58 %ID/g | Organ distribution, tumor [2, 4]: 2.55±0.38 %ID/g | Tumor-to-blood ratio (TBR) [2, 4]: 0.46±0.05 | Tumor-to-kidney ratio (TKR) [2, 4]: 0.38±0.03 | Tumor-to-liver ratio (TLR) [2, 4]: 0.43±0.03 | Tumor-to-muscle ratio (TMR) [2, 4]: 3.66±0.13 | Organ distribution, blood [2, 5]: 5.98 %ID/g | Organ distribution, tumor [2, 5]: 3.52 %ID/g and 2.54 %ID/g and 1.66 %ID/g | Tumor-to-blood ratio (TBR) [2, 5]: 0.59 and 0.42 and 0.37 and 0.44 | Tumor-to-kidney ratio (TKR) [2, 5]: 0.47 and 0.35 and 0.38 and 0.31 | Tumor-to-liver ratio (TLR) [2, 5]: 0.51 and 0.41 (2×) and 0.40 | Tumor-to-muscle ratio (TMR) [2, 5]: 3.52 and 3.35 and 3.91 and 3.86 | Organ distribution, bladder [2, 6]: 25±2.12 %ID/g | Organ distribution, kidney [2, 6]: 7.08±0.56 %ID/g | Organ distribution, liver [2, 6]: 4.02±0.15 %ID/g | Organ distribution, tumor [2, 6]: 4.28±0.37 %ID/g | Tumor-to-blood ratio (TBR) [2, 6]: 0.92±0.10 | Tumor-to-kidney ratio (TKR) [2, 6]: 0.61±0.05 | Tumor-to-liver ratio (TLR) [2, 6]: 1.06±0.07 | Tumor-to-muscle ratio (TMR) [2, 6]: 3.68±0.32 | Organ distribution, blood [2, 7]: 4.04 %ID/g | Organ distribution, tumor [2, 7]: 5.16 %ID/g and 3.44 %ID/g and 4.56 %ID/g | Tumor-to-blood ratio (TBR) [2, 7]: 1.04 and 0.69 and 1.13 and 0.84 | Tumor-to-kidney ratio (TKR) [2, 7]: 0.75 and 0.60 and 0.59 and 0.49 | Tumor-to-liver ratio (TLR) [2, 7]: 1.20 and 1.00 and 1.16 and 0.88 | Tumor-to-muscle ratio (TMR) [2, 7]: 3.40 and 3.28 and 4.65 and 3.37 | Organ distribution, bladder [2, 8]: 42.54±5.06 %ID/g | Organ distribution, kidney [2, 8]: 4.02±0.60 %ID/g | Organ distribution, liver [2, 8]: 3.21±0.11 %ID/g | Organ distribution, tumor [2, 8]: 4.49±0.45 %ID/g | Tumor-to-blood ratio (TBR) [2, 8]: 1.12±0.15 | Tumor-to-kidney ratio (TKR) [2, 8]: 1.14±0.07 | Tumor-to-liver ratio (TLR) [2, 8]: 1.40±0.12 | Tumor-to-muscle ratio (TMR) [2, 8]: 3.71±0.40 | Organ distribution, blood [2, 9]: 3.66 %ID/g | Organ distribution, tumor [2, 9]: 5.65 %ID/g and 3.51 %ID/g and 4.60 %ID/g | Tumor-to-blood ratio (TBR) [2, 9]: 1.46 and 0.76 and 1.26 and 1.01 | Tumor-to-kidney ratio (TKR) [2, 9]: 1.33 and 1.11 and 0.98 and 1.14 | Tumor-to-liver ratio (TLR) [2, 9]: 1.56 and 1.31 and 1.62 and 1.10 | Tumor-to-muscle ratio (TMR) [2, 9]: 3.57 and 3.36 and 4.87 and 3.03 | Organ distribution, bladder [2, 10]: 50.28±7.13 %ID/g | Organ distribution, kidney [2, 10]: 2.78±0.44 %ID/g | Organ distribution, liver [2, 10]: 2.88±0.08 %ID/g | Organ distribution, tumor [2, 10]: 4.62±0.51 %ID/g | Tumor-to-blood ratio (TBR) [2, 10]: 1.29±0.21 | Tumor-to-kidney ratio (TKR) [2, 10]: 1.70±0.10 | Tumor-to-liver ratio (TLR) [2, 10]: 1.60±0.16 | Tumor-to-muscle ratio (TMR) [2, 10]: 3.74±0.37 | Organ distribution, blood [2, 11]: 3.44 %ID/g | Organ distribution, tumor [2, 11]: 5.95 %ID/g and 3.52 %ID/g and 4.68 %ID/g | Tumor-to-blood ratio (TBR) [2, 11]: 1.85 and 0.85 and 1.36 and 1.11 | Tumor-to-kidney ratio (TKR) [2, 11]: 1.96 and 1.64 and 1.47 and 1.71 | Tumor-to-liver ratio (TLR) [2, 11]: 1.75 and 1.48 and 1.94 and 1.24 | Tumor-to-muscle ratio (TMR) [2, 11]: 3.66 and 3.17 and 4.80 and 3.32 | Organ distribution, bladder ([2]; 45 min post-injection, Mean±SEM, n = 4 mice): 53.81±7.59 %ID/g | Organ distribution, kidney [2, 12]: 2.16±0.21 %ID/g | Organ distribution, liver [2, 12]: 2.73±0.09 %ID/g | Organ distribution, tumor [2, 12]: 4.65±0.52 %ID/g | Tumor-to-blood ratio (TBR) [2, 12]: 1.38±0.25 | Tumor-to-kidney ratio (TKR) [2, 12]: 2.15±0.08 | Tumor-to-liver ratio (TLR) [2, 12]: 1.71±0.17 | Tumor-to-muscle ratio (TMR) [2, 12]: 3.88±0.41 | Tumor-to-blood ratio (TBR) [2, 13]: 1.4 ± 0.3 | Tumor-to-liver ratio (TLR) [2, 13]: 1.7 ± 0.2 | Tumor-to-muscle ratio (TMR) [2, 13]: 3.9 ± 0.4 | Tumor-to-blood ratio (TBR) [2, 14]: 1.19 and 2.06 and 0.88 and 1.38 | Tumor-to-kidney ratio (TKR) [2, 14]: 2.35 and 2.03 and 2.20 and 2.02 | Tumor-to-liver ratio (TLR) [2, 14]: 1.89 and 1.58 and 2.07 and 1.28 | Tumor-to-muscle ratio (TMR) [2, 14]: 3.52 and 3.41 and 5.09 and 3.49 | clearance route ([2]; PET/CT, U87MG tumor-bearing mice): cleared mainly by the kidneys | logD7.4 [3]: −2.5 ± 0.05
SMILES: N#C[C@@H]1CC(F)(F)CN1C(=O)CNC(=O)c1ccnc2ccc(OCCCCNC(=O)CC[C@H](NC(=O)CCC(C(=O)O)N3CCN(CC(=O)[O-])CCN(CC(=O)[O-])CCN(CC(=O)[O-])CC3)C(=O)NCCCCOc3ccc4nccc(C(=O)NCC(=O)N5CC(F)(F)C[C@H]5C#N)c4c3)cc12.[68Ga+3] (some centres unmarked) [[^68Ga]Ga-DOTAGA-Glu(FAPi)2]
Organ distribution, bladder [2, 5]: 4.80 %ID/g and 4.51 %ID/g and 3.00 %ID/g and 3.51 %ID/g | Organ distribution, kidney [2, 5]: 7.50 %ID/g and 7.11 %ID/g and 6.77 %ID/g and 5.32 %ID/g | Organ distribution, liver [2, 5]: 6.93 %ID/g and 6.06 %ID/g and 6.15 %ID/g and 4.19 %ID/g | Organ distribution, bladder [2, 7]: 20.10 %ID/g and 25.42 %ID/g and 30.39 %ID/g and 24.10 %ID/g | Organ distribution, kidney [2, 7]: 6.09 %ID/g and 6.56 %ID/g and 8.67 %ID/g and 7.01 %ID/g | Organ distribution, liver [2, 7]: 3.79 %ID/g and 3.93 %ID/g and 4.45 %ID/g and 3.92 %ID/g | Organ distribution, bladder [2, 9]: 31.21 %ID/g and 41.63 %ID/g and 55.86 %ID/g and 41.46 %ID/g | Organ distribution, kidney [2, 9]: 3.47 %ID/g and 3.78 %ID/g and 5.77 %ID/g and 3.07 %ID/g | Organ distribution, liver [2, 9]: 2.94 %ID/g and 3.20 %ID/g and 3.49 %ID/g and 3.19 %ID/g | Organ distribution, bladder [2, 11]: 35.81 %ID/g and 47.82 %ID/g and 69.95 %ID/g and 47.53 %ID/g | Organ distribution, kidney [2, 11]: 2.39 %ID/g and 2.64 %ID/g and 4.04 %ID/g and 2.06 %ID/g | Organ distribution, liver [2, 11]: 2.67 %ID/g and 2.93 %ID/g and 3.06 %ID/g and 2.85 %ID/g | Organ distribution, bladder [2, 14]: 39.77 %ID/g and 49.32 %ID/g and 75.38 %ID/g and 50.79 %ID/g | Organ distribution, kidney [2, 14]: 1.99 %ID/g and 2.17 %ID/g and 2.73 %ID/g and 1.74 %ID/g | Organ distribution, liver [2, 14]: 2.47 %ID/g and 2.78 %ID/g and 2.91 %ID/g and 2.75 %ID/g | Organ distribution, tumor [2, 14]: 4.40 %ID/g and 6.01 %ID/g and 3.52 %ID/g and 4.68 %ID/g
